Series [1] has as its system advanced solid tumours. Briefly: Anti-tumour activity, Response Evaluation Criteria in Solid Tumors. It counts as in vivo, human.
Experimental: (§2) Patients receiving at least one dose of study drug medications were evaluated weekly for safety using the National Cancer Institute Common Toxicity Criteria version 2.0. Safety assessments consisted of clinical examinations and scheduled laboratory evaluations and electrocardiograms. […] Treatment with the combination was discontinued on any grade 4 toxicity or failure to return to grade ⩽1 within 2 weeks. […] The concomitant use of any drugs that may interfere with cytochrome CYP450-3A was discouraged. […] Anti-tumour activity was assessed using Response Evaluation Criteria in Solid Tumors.
The subject of series [2] is S6K1. The arrangement: method as in Tabernero et al, 2008. The note with it: weekly dosing (20, 50, or 70 mg), immunohistochemistry; ref Tabernero et al, 2008; cited from earlier work.
For the next series, the system named is tumour models. More on the design: method as in O'Reilly et al, 2003. To be noted: schedule effect, ref O'Reilly et al, 2003; cited from earlier work.
Series [3] can be described thus: Pharmacokinetics of everolimus in whole blood (LC-MS, non-compartmental). The note with it: for Tmax / Cmax / half-life: whole blood; for Cmax / half-life: mean (s.d.). It counts as in vivo, human. The procedure:
(§1) For everolimus, sampling was carried out predose and 1, 2, 4, 6, 12, 24, 48, 96, and 168 h after administration. Everolimus was measured in whole blood by liquid chromatography–mass spectrometry after liquid extraction, its lower limit of quantification being 0.368 ng ml^−1. […] Pharmacokinetic parameters were derived by standard non-compartmental methods of analysis (WinNonlin Pro 5.0). The measured parameters included the maximum plasma concentration (Cmax), time to reach Cmax (tmax), and the truncated area under the time–concentration curve (AUClast).

The test system of series [4] is patients with advanced solid tumours. Briefly: Safety and dose-limiting toxicity, NCI Common Toxicity Criteria version 2.0. The note with it: everolimus + paclitaxel, 16 patients.
Experimental: as §2
(§3) Dose-limiting toxicity was defined as occurring during the first 28-day cycle, suspected of being drug related, and included any grade 4 toxicity, any grade 3 non-haematological toxicity despite preventive therapy, or grade ⩾2 neutropenia, or thrombocytopenia failing to revert to grade ⩽1 within 2 weeks. Three patients were entered per dose level, with expansion to six patients if one of three patients experienced DLT. If DLT occurred in none of three or no more than one of six patients in dose level 1, doses would be escalated to dose level 2. Dose-limiting toxicity in more than one of three or more than two of six patients would be considered unacceptable.
For series [5] the test system is unchanged. The note with it: human, in vivo.
Experimental: as §2, §3
Series [6] concerns S6K1. More on the design: method as in O'Donnell et al, 2008. To be noted: ref O'Donnell et al, 2008, cited from earlier work.
For series [7] the following is noted: as a single agent; no reference given; cited from earlier work.
Series [8] relates to patients with advanced cancers. The arrangement: method as in Tabernero et al, 2008. To be noted: single-agent everolimus 70 mg weekly; ref Tabernero et al, 2008; cited from earlier work.
In series [9] the test system is trastuzumab-resistant breast cancer. The arrangement: method as in André et al, 2008. The note with it: everolimus and paclitaxel with trastuzumab; population pre-treated with trastuzumab and taxanes; preliminary; ref André et al, 2008; cited from earlier work.
The conditions of series [10]: as a single agent; cited from earlier work.
A further series can be described thus: clinical. The note with it: human, in vivo, iv. The procedure: as §1
The next series relates to cervical cancer. The arrangement: method as in Mori et al, 2007. To be noted: weekly paclitaxel, cervical cancer patients; ref Mori et al, 2007; cited from earlier work.
Series [11] deals with advanced solid tumours. The note with it: prior docetaxel therapy in the same two patients with metastatic breast cancer; patient history; cited from earlier work.
The mark [12] stands for this setting: everolimus + paclitaxel, 16 patients.
Setting [13] is: human, po, 15 mg, everolimus 15 mg oral alone, dose level 1, n=3.
[14] abbreviates: human, po, 30 mg, everolimus 30 mg oral alone, dose level 2, n=4.
The mark [15] stands for this setting: human, po, everolimus 15 mg oral with paclitaxel 80 mg m^−2, dose level 1, n=3.
Setting [16] is: human, po, everolimus 30 mg oral with paclitaxel 80 mg m^−2, dose level 2, n=7.

Values joined by “and” are separate entries in the source; they are usually repeats but may differ in a detail not shown here. Equal values may be shown once. Read-outs that look alike come from different tables or passages of the source. Some results are limits rather than exact numbers.

In the case of `CO[C@H]1C[C@@H]2CC[C@@H](C)[C@@](O)(O2)C(=O)C(=O)N2CCCC[C@H]2C(=O)O[C@H]([C@H](C)C[C@@H]2CC[C@@H](OCCO)[C@H](OC)C2)CC(=O)[C@H](C)/C=C(\C)[C@@H](O)[C@@H](OC)C(=O)[C@H](C)C[C@H](C)/C=C/C=C/C=C/1C` [everolimus, Everolimus], in the series with advanced solid tumours [1] (setting [12]), the Objective response result is on record as “No objective response”. In addition, the “Tumour stabilisation reported, patients” value in the series on advanced solid tumours [1] (setting [12]) amounted to 11 patients. The “Sustained tumour stabilisation for more than 4 months, patients” value with advanced solid tumours [1] (everolimus + paclitaxel, breast (two), ovarian (two), thyroid carcinoma (one), liposarcoma (one)) is “six”. Moreover, the “Duration of tumour stabilisation” value with advanced solid tumours [1] (two patients with metastatic breast cancer at dose level 2 (everolimus 30 mg + paclitaxel)) is greater than 6 months. Besides, the “Dose with confirmed inhibition of S6K1 in paired tumour tissue biopsies” value with S6K1 [2] was no less than 20 mg. Further, the “Effect of in vivo combination with paclitaxel” value in the series on tumour models is “additive and synergistic effects”. The Tmax was 1.0 (1–4) h in series [3] (everolimus 30 mg oral with paclitaxel 80 mg m^−2, dose level 2, n=7, median (range)); 1 h in [3] (human, po, read-out: tmax); 1 h in series [3] (human, everolimus 15 mg oral alone, dose level 1, n=3, median (range), read-out: tmax); 1 h in series [3] (human, everolimus 30 mg oral alone, dose level 2, n=4, median (range), read-out: tmax). Moreover, the “Change in tmax, Cmax and AUClast when given in combination” value in [3] (everolimus with paclitaxel vs alone) is given as “no meaningful change”. Besides, the Cmax was 75.2 ± 37.4 ng/mL in [3] (setting [13]), 93 ± 28.6 ng/mL in [3] (setting [14]), 57.9 ± 35.8 ng/mL in series [3] (setting [15]) and 94.5 ± 60.1 ng/mL in [3] (setting [16]). Besides, the half-life in [3] (setting [13]) is 29.5 ± 8.5 h; in series [3] (setting [14]), 26.9 ± 7.1 h; in series [3] (setting [15]), 24.6 ± 3.6 h; in [3] (setting [16]), 27.4 ± 5.6 h. Also, the “Change of everolimus AUC with concomitant fluconazole” value in [3] (one patient at dose level 2 (everolimus 30 mg), concomitant medication with fluconazole) is listed as “threefold increase”. Also, the Toxicity-related death entry in series [4] was “No toxicity-related death”. For the same compound, the “Dose interruptions in any cycle, n (%)” value in series [5] is recorded as 8 (50.0). Besides, the “Duration of sustained inhibition of S6K1 activity in peripheral blood mononuclear cells” value in the series with S6K1 [6] (single-agent everolimus at doses ⩾20 mg per week) is “at least 7 days”. In addition, the “Dose with consistent inhibition of S6K1 activity in peripheral blood mononuclear cells” value in the series with S6K1 [6] (single-agent everolimus) is recorded as no less than 20 mg per week. Further, in series [7], the Terminal half-life result is recorded as “about 30 h”. In addition, the Dose-limiting toxicities observed entry in series [8] was “grade 3 stomatitis, neutropenia, and hyperglycaemia”. Moreover, the Rate of response in series [9] is on record as 46%.

Regarding `CC(=O)O[C@H]1C(=O)[C@@]2(C)[C@H]([C@H](OC(=O)c3ccccc3)[C@]3(O)C[C@H](OC(=O)[C@H](O)[C@@H](NC(=O)c4ccccc4)c4ccccc4)C(C)=C1C3(C)C)[C@]1(OC(C)=O)CO[C@@H]1C[C@@H]2O` [paclitaxel], the Terminal half-life result in series [10] is on record as “about 10 h”. For the same compound, the Tmax in “clinical” was 4.8 min. Further, in the series with cervical cancer, the “Time apoptosis could be induced after treatment” value is “up to 1 week” and the “Time paclitaxel could be detected in tissue” value is recorded as “up to 6 days”.

On to `CC(=O)O[C@@]12CO[C@@H]1C[C@H](O)[C@@]1(C)C(=O)[C@H](O)C3=C(C)[C@@H](OC(=O)[C@H](O)[C@@H](NC(=O)OC(C)(C)C)c4ccccc4)C[C@@](O)([C@@H](OC(=O)c4ccccc4)[C@H]21)C3(C)C` [docetaxel], for which the “Duration of tumour stabilisation previously recorded” value in the series on advanced solid tumours [11] is 3.7 months and 3.5 months.

Broadly, the Cmax is the highest concentration seen after dosing. A word on the half-life: it is the time in which the quantity being followed falls by half.

The values above are taken from article PMC2634724 (British Journal of Cancer, 2009).
